The values that follow come from article PMC6894882 (PLoS Neglected Tropical Diseases, 2019).

Where only a bound is given, the exact number is not on record here.

By IC50 is commonly meant the concentration at which inhibition is half-maximal. Broadly, the EC50 is the midpoint of the concentration-response curve. Broadly, the EC90 is the point of the concentration-response curve where the effect stands at 90%. A word on the Papp A→B: it is the apparent permeability from the apical to the basolateral side of a cell layer. As usually defined, the Papp B→A is the apparent permeability from the basolateral to the apical side of a cell layer. One may read the efflux ratio as the permeability from basolateral to apical divided by that in the opposite direction, in the common usage. The microsomal CLint is the capacity of the preparation to metabolise the compound, expressed as a volume cleared per time.

Series [1] is described as follows: in vitro. Particulars: African green monkey.
In a further series the target is CYP2D6 (Homo sapiens, UniProt P10635). The series is described as follows: biochemical.
For series [2] the following is noted: mouse, in vivo.
For the next series, the system named is Murine norovirus. The experiment in a line: microbe, parasite or virus in culture. The series is classed as cell-based. On the set-up: SI50 / SI90: unit not given beside the values.
A short description of series [3]: in vitro. Particulars: human, Caco-2, pH 7.4.
In a further series the test system is Tacaribe virus. The experiment in a line: microbe, parasite or virus in culture. Type of series: cell-based. On the set-up: SI50: unit not given beside the values.
The next series has as its target CYP3A4 (Homo sapiens, UniProt P08684). The experiment in a line: biochemical.
Another series relates to Human cytomegalovirus. The series is described as follows: microbe, parasite or virus in culture. On the set-up: SI50 / SI90: unit not given beside the values. Type of series: cell-based.
The nature of series [4]: in vitro. Particulars: human, microsomes.
The target in another series is CYP2C9 (Homo sapiens, UniProt P11712). The experiment in a line: biochemical.
The subject of a further series is Plasmodium falciparum. Particulars: read-out: in vitro EC50; cited from earlier work.
The subject of the next series is West Nile virus. The experiment in a line: microbe, parasite or virus in culture. The series is classed as cell-based. On the set-up: SI50: unit not given beside the values.

Sequence of CYP2C9 (P11712 whole entry): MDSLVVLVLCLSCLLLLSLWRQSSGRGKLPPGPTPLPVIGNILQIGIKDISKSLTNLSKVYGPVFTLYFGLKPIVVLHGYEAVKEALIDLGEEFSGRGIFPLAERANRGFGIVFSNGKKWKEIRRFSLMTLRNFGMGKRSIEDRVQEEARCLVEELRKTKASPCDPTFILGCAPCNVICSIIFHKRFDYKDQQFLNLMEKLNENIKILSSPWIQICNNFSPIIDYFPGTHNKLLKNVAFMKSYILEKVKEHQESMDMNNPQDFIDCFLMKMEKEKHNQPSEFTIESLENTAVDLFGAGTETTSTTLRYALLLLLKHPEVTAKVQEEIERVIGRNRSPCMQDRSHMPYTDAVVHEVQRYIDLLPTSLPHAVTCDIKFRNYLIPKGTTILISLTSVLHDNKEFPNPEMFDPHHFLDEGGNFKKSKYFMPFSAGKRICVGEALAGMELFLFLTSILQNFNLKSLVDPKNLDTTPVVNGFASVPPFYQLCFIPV
Sequence of CYP2D6 (P10635 whole entry): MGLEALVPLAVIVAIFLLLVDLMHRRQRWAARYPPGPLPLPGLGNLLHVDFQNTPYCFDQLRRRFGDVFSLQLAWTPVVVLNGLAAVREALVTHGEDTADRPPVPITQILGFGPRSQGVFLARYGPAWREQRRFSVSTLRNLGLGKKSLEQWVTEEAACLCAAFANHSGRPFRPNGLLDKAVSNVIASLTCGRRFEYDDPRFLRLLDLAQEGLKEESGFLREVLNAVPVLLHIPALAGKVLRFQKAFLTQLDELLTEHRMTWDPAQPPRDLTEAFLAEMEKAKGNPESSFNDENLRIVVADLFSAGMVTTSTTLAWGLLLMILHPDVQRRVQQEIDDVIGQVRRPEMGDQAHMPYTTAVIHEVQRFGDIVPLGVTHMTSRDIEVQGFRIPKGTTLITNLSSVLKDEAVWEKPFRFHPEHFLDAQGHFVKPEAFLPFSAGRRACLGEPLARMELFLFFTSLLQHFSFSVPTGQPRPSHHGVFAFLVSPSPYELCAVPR
Sequence of CYP3A4 (P08684 whole entry): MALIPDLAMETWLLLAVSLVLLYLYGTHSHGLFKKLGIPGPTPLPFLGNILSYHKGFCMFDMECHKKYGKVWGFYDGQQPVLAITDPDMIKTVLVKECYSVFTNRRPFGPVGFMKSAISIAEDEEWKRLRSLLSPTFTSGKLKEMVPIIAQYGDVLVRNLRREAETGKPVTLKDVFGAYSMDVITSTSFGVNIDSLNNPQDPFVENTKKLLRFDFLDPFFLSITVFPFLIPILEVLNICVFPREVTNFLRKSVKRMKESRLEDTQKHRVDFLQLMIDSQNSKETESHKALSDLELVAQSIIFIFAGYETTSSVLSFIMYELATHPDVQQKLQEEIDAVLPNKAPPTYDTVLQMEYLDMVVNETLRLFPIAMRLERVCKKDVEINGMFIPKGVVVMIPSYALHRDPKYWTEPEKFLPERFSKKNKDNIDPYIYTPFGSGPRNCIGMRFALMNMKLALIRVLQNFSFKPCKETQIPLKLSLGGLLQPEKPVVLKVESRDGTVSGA

Regarding `COc1ccc2nc3cc(Cl)ccc3c(Nc3cc(CN4CCCC4)c(O)c(CN4CCCC4)c3)c2n1` [Pyronaridine, 4-[(7-Chloro-2-methoxybenzo[b][1, 5]naphthyridin-10-yl)amino]-2,6-bis(1-pyrrolidinylmethyl)phenol phosphate (1:4)], the values for the CC50 in the series “in vitro [1]” (CC50) and in the series “in vitro [1]” (approximate CC50) were 3.2 µM and about 3 µM, respectively. Also, the IC50 against CYP2D6 was 2.23 µM; against CYP3A4, 42.9 µM; against CYP2C9, over 50 µM. In [2], the “clinical observations in PK study” value is “ruffled fur and eye squinting”. Moreover, the “time of peak plasma levels” value in series [2] (ip) was 0.25 and 1. Further, the SI50 in the series on Murine norovirus is reported as 1; with Tacaribe virus, 0; in the series with Human cytomegalovirus, under 3; with West Nile virus, 0. Besides, the SI90 in the series on Murine norovirus is on record as 1; in the series on Human cytomegalovirus, under 3. In addition, the 50% effective concentration (EC50) with Murine norovirus (Norwalk virus, RAW267.4) was over 40 µM; in the series on Tacaribe virus (Mammarenavirus tacaribeense, Vero), over 3.2 µM; with Human cytomegalovirus (Human betaherpesvirus 5, HFF), over 1.2 µM; in the series with Plasmodium falciparum, 0.0135 µM; in the series on West Nile virus (West Nile virus, Vero 76) it was over 24 µM. Further, the EC90 in the series with Murine norovirus (Norwalk virus, RAW267.4) is over 40 µM; with Human cytomegalovirus (Human betaherpesvirus 5, HFF), over 1.2 µM. This compound came in with an apparent permeability from apical to basolateral (Papp A→B) in “in vitro [3]” of 6.46 ×10⁻⁶ cm/s. Moreover, the Papp B→A in the series “in vitro [3]” came to 4.8 ×10⁻⁶ cm/s. Further, in the series “in vitro [3]”, the efflux ratio stood at 0.74. The intrinsic metabolic clearance (microsomal CLint) in the series “in vitro [4]” worked out at 4.1 µL/min/mg.
